PubChem BioAssay (NCI)
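1) Cells in 96-well plates. 2) Compound, 48 h, 5 concentrations. 3) Linear interpolation between surrounding doses. 4) Unreached endpoint = highest concentration. TGI: total growth inhibition.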

What was measured:
Experiment in all cases: DTP human tumour cell line panel, 48 h
[1] = tested on: NCI/ADR-RES ovarian
[2] = tested on: SF-295 CNS
[3] = tested on: UACC-62 melanoma
[4] = tested on: HCT-15 colon
[5] = tested on: HCC-2998 colon
[6] = tested on: MALME-3M melanoma
[7] = tested on: T-47D breast
[8] = tested on: SW-620 colon
[9] = tested on: M14 melanoma
[10] = tested on: OVCAR-4 ovarian
[11] = tested on: K-562 leukemia
[12] = tested on: CCRF-CEM leukemia
[13] = tested on: OVCAR-5 ovarian
[14] = tested on: EKVX NSCLC
[15] = tested on: UACC-257 melanoma
[16] = tested on: HOP-62 NSCLC
[17] = tested on: SK-MEL-28 melanoma
[18] = tested on: RPMI-8226 leukemia
[19] = tested on: MDA-MB-435
[20] = tested on: NCI-H522 lung
[21] = tested on: KM12 colon
[22] = tested on: 786-0 renal
[23] = tested on: OVCAR-8 ovarian
[24] = tested on: TK-10 renal
[25] = tested on: SN12C renal
[26] = tested on: SF-268 CNS
[27] = tested on: SNB-19 CNS
[28] = tested on: SR leukemia
[29] = tested on: DU-145 prostate
[30] = tested on: NCI-H460 lung
[31] = tested on: HOP-92 NSCLC
[32] = tested on: RXF 393 renal
[33] = tested on: COLO 205 colon
[34] = tested on: SNB-75 CNS
[35] = tested on: CAKI-1 renal
[36] = tested on: MDA-MB-231 breast
[37] = tested on: U251 CNS
[38] = tested on: LOX IMVI melanoma
[39] = tested on: ACHN renal
[40] = tested on: SF-539 CNS
[41] = tested on: HCT-116 colon
[42] = tested on: NCI-H23 lung
[43] = tested on: IGROV1 ovarian
[44] = tested on: MCF7 breast
[45] = tested on: A549 NSCLC
[46] = tested on: HT29 colon
[47] = tested on: SK-MEL-5 melanoma
[48] = tested on: MOLT-4 leukemia
[49] = tested on: PC-3 prostate
[50] = tested on: SK-OV-3 ovarian
[51] = tested on: NCI-H226 lung
[52] = tested on: SK-MEL-2 melanoma
[53] = tested on: MDA-N
[54] = tested on: OVCAR-3 ovarian
[55] = tested on: UO-31 renal
[56] = tested on: A498 renal
[57] = tested on: HS 578T breast
[58] = tested on: HL-60(TB) leukemia

For `Clc1ccc2nc(CC3CCCC3)[nH]c2c1`, which TGI [1] is on record?
Its TGI is 35.6 µM.

And the TGI [2]?
The TGI was 34.7 µM.

And the TGI [3]?
Its TGI is 33.4 µM.

What about the TGI [4] of the same molecule?
The TGI was 22.9 µM.

And the TGI [5]?
The TGI was 41.8 µM.

And the TGI [6]?
The TGI was 45.1 µM.

What about the TGI [7] of the same molecule?
The TGI was 72.5 µM.

And the TGI [8]?
Its TGI is over 100 µM.

What about the TGI [9] of the same molecule?
The TGI was 38.2 µM.

And the TGI [10]?
Its TGI is 45.8 µM.

And the TGI [11]?
Its TGI is 22.1 µM.

And the TGI [12]?
The TGI was over 100 µM.

What about the TGI [13] of the same molecule?
Its TGI is 67.5 µM.

What about the TGI [14] of the same molecule?
The TGI was 43.5 µM.

And the TGI [15]?
Its TGI is over 100 µM.

And the TGI [16]?
Its TGI is 32.7 µM.

And the TGI [17]?
The TGI was 63.9 µM.

And the TGI [18]?
Its TGI is 50.3 µM.

And the TGI [19]?
Its TGI is 25.9 µM.

What about the TGI [20] of the same molecule?
Its TGI is 21.2 µM.

And the TGI [21]?
The TGI was 38.8 µM.

And the TGI [22]?
The TGI was 33.4 µM.

What about the TGI [23] of the same molecule?
The TGI was over 100 µM.

What about the TGI [24] of the same molecule?
The TGI was 70.2 µM.

And the TGI [25]?
The TGI was 36.8 µM.

And the TGI [26]?
The TGI was 40.2 µM.

And the TGI [27]?
Its TGI is 64 µM.

And the TGI [28]?
Its TGI is 26.5 µM.

What about the TGI [29] of the same molecule?
Its TGI is 54.6 µM.

What about the TGI [30] of the same molecule?
Its TGI is 46.9 µM.

And the TGI [31]?
Its TGI is 34 µM.

What about the TGI [32] of the same molecule?
Its TGI is 32.1 µM.

What about the TGI [33] of the same molecule?
The TGI was 27.9 µM.

And the TGI [34]?
Its TGI is 56 µM.

And the TGI [35]?
Its TGI is 27.6 µM.

What about the TGI [36] of the same molecule?
The TGI was 43.6 µM.

What about the TGI [37] of the same molecule?
Its TGI is 36.5 µM.

And the TGI [38]?
Its TGI is 29.9 µM.

What about the TGI [39] of the same molecule?
Its TGI is 32.6 µM.

What about the TGI [40] of the same molecule?
The TGI was 51.7 µM.

What about the TGI [41] of the same molecule?
Its TGI is 32 µM.

What about the TGI [42] of the same molecule?
Its TGI is 30.6 µM.

What about the TGI [43] of the same molecule?
Its TGI is 19 µM.

And the TGI [44]?
The TGI was 22 µM.

What about the TGI [45] of the same molecule?
The TGI was 60.8 µM.

And the TGI [46]?
The TGI was 33.5 µM.

And the TGI [47]?
The TGI was 24.9 µM.

What about the TGI [48] of the same molecule?
The TGI was 35 µM.

What about the TGI [49] of the same molecule?
Its TGI is 71 µM.

And the TGI [50]?
Its TGI is 49.1 µM.

And the TGI [51]?
Its TGI is 38.4 µM.

What about the TGI [52] of the same molecule?
The TGI was 41.2 µM.

What about the TGI [53] of the same molecule?
Its TGI is 38.5 µM.

What about the TGI [54] of the same molecule?
Its TGI is 22.7 µM.

What does the source list for `COc1ccc(S(=O)(=O)Nc2ccc(-c3csc(N4C(=O)/C(=C/c5ccccc5)N=C4c4ccccc4)n3)cc2)cc1Cl`?
TGI [1]: > 100 µM; TGI [2]: > 100 µM; TGI [3]: > 100 µM; TGI [4]: 49.5 µM; TGI [6]: > 100 µM; TGI [7]: 61.9 µM; TGI [8]: > 100 µM; TGI [9]: 71.9 µM; TGI [10]: 99.4 µM; TGI [11]: > 100 µM; TGI [12]: > 100 µM; TGI [13]: > 100 µM; TGI [15]: > 100 µM; TGI [16]: > 100 µM; TGI [55]: 34.1 µM; TGI [17]: > 100 µM; TGI [19]: > 100 µM; TGI [20]: > 100 µM; TGI [56]: 48.7 µM; TGI [21]: > 100 µM; TGI [22]: > 100 µM; TGI [23]: > 100 µM; TGI [24]: > 100 µM; TGI [25]: > 100 µM; TGI [26]: > 100 µM; TGI [27]: > 100 µM; TGI [28]: > 100 µM; TGI [29]: 86.8 µM; TGI [30]: > 100 µM; TGI [31]: 69.7 µM; TGI [57]: > 100 µM; TGI [32]: 73.3 µM; TGI [33]: > 100 µM; TGI [34]: > 100 µM; TGI [35]: > 100 µM; TGI [36]: 46.2 µM; TGI [37]: 78 µM; TGI [38]: > 100 µM; TGI [39]: > 100 µM; TGI [40]: > 100 µM; TGI [41]: > 100 µM; TGI [42]: 54.8 µM; TGI [43]: > 100 µM; TGI [44]: > 100 µM; TGI [45]: > 100 µM; TGI [46]: > 100 µM; TGI [47]: > 100 µM; TGI [58]: 87.4 µM; TGI [48]: > 100 µM; TGI [49]: > 100 µM; TGI [50]: > 100 µM; TGI [51]: > 100 µM; TGI [52]: > 100 µM; TGI [53]: > 100 µM; TGI [54]: > 100 µM
